# Laboratory results published in PubChem BioAssay AID2060331 (Molecular Pharmacology Branch, DTP, NCI, 2025).
# Where “and” joins values, the source holds several entries; their conditions need not be identical. Equal entries are not always repeated.
# Tested on: Hs578T multi-cell spheroids, viability
# Assay: Anticancer human tumor Hs578T cell line growth inhibition [IpAb];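 also: drug exposure lasted 7 days before readout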
# Conditions: for viability, T/C: stronger effect = lower value
# Summary of the method: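 Combinations with ipatasertib or abemaciclib were tested on tumour spheroids holding HUVEC (25%) and MSC (15%) alongside 60% malignant cells. Top concentration was at or near clinical Cmax (10 microM if undefined), descending in half-log steps.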
structure (smiles),measurement,setting,value
CC(=O)c1c(C)c2cnc(Nc3ccc(N4CCNCC4)cn3)nc2n(C2CCCC2)c1=O + CCN1CCN(Cc2ccc(Nc3ncc(F)c(-c4cc(F)c5nc(C)n(C(C)C)c5c4)n3)nc2)CC1,IC50,"curve of first compound, second compound 0.01 µM",> 300 nM
same,IC50,"curve of first compound, second compound 0.0316 µM",> 300 nM
same,IC50,"curve of first compound, second compound 0.1 µM",> 300 nM
same,IC50,"curve of first compound, second compound 0.316 µM",> 300 nM
same,IC50,"curve of first compound, second compound 1 µM",> 300 nM
same,"viability, T/C","second compound 0.01 µM, first compound 0.000949 µM",106%
same,"viability, T/C","second compound 0.01 µM, first compound 0.003 µM",95.1%
same,"viability, T/C","second compound 0.01 µM, first compound 0.00949 µM",95%
same,"viability, T/C","second compound 0.01 µM, first compound 0.03 µM",81.9%
same,"viability, T/C","second compound 0.01 µM, first compound 0.0949 µM",77.5%
same,"viability, T/C","second compound 0.01 µM, first compound 0.3 µM",63.4%
same,"viability, T/C","second compound 0.0316 µM, first compound 0.000949 µM",91.3%
same,"viability, T/C","second compound 0.0316 µM, first compound 0.003 µM",89.1%
same,"viability, T/C","second compound 0.0316 µM, first compound 0.00949 µM",90.3%
same,"viability, T/C","second compound 0.0316 µM, first compound 0.03 µM",73.3%
same,"viability, T/C","second compound 0.0316 µM, first compound 0.0949 µM",69.3%
same,"viability, T/C","second compound 0.0316 µM, first compound 0.3 µM",60.5%
same,"viability, T/C","second compound 0.1 µM, first compound 0.000949 µM",75.6%
same,"viability, T/C","second compound 0.1 µM, first compound 0.003 µM",80.8%
same,"viability, T/C","second compound 0.1 µM, first compound 0.00949 µM",81.8%
same,"viability, T/C","second compound 0.1 µM, first compound 0.03 µM",80.8%
same,"viability, T/C","second compound 0.1 µM, first compound 0.0949 µM",66%
same,"viability, T/C","second compound 0.1 µM, first compound 0.3 µM",73.3%
same,"viability, T/C","second compound 0.316 µM, first compound 0.000949 µM",81.3%
same,"viability, T/C","second compound 0.316 µM, first compound 0.003 µM",85.2%
same,"viability, T/C","second compound 0.316 µM, first compound 0.00949 µM",82.2%
same,"viability, T/C","second compound 0.316 µM, first compound 0.03 µM",79.8%
same,"viability, T/C","second compound 0.316 µM, first compound 0.0949 µM",70.7%
same,"viability, T/C","second compound 0.316 µM, first compound 0.3 µM",68%
same,"viability, T/C","second compound 1 µM, first compound 0.000949 µM",93%
same,"viability, T/C","second compound 1 µM, first compound 0.003 µM",98.5%
same,"viability, T/C","second compound 1 µM, first compound 0.00949 µM",93.7%
same,"viability, T/C","second compound 1 µM, first compound 0.03 µM",96.7%
same,"viability, T/C","second compound 1 µM, first compound 0.0949 µM",89.5%
same,"viability, T/C","second compound 1 µM, first compound 0.3 µM",89%
CCN1CCN(Cc2ccc(Nc3ncc(F)c(-c4cc(F)c5nc(C)n(C(C)C)c5c4)n3)nc2)CC1,"viability, T/C",compound 0.01 µM,97.2% [middle of 13 runs]
same,"viability, T/C",compound 0.0316 µM,90.4% [middle of 13 runs]
same,"viability, T/C",compound 0.1 µM,83.7% [middle of 13 runs]
same,"viability, T/C",compound 0.316 µM,83.3% [middle of 13 runs]
same,"viability, T/C",compound 1 µM,94.2% [middle of 13 runs]
same,IC50,"compound alone, run of 06/01/2021",> 1000 nM
CC(C)(C)c1cnc(CSc2cnc(NC(=O)C3CCNCC3)s2)o1,"viability, T/C",compound 0.00949 µM,102% and 104%
same,"viability, T/C",compound 0.03 µM,113% and 114%
same,"viability, T/C",compound 0.0949 µM,122% and 107%
same,"viability, T/C",compound 0.3 µM,4.21% and 2.95%
same,"viability, T/C",compound 0.949 µM,2.73% and 3.15%
same,"viability, T/C",compound 3 µM,2.69% and 3.46%
same,IC50,curve of compound,184 nM and 178 nM
COc1c(OCCCN2CCOCC2)ccc2c3n(c(=NC(=O)c4cnc(N)nc4)nc12)CCN3,"viability, T/C",compound 0.00316 µM,88.8% and 99.7%
same,"viability, T/C",compound 0.01 µM,66.7% and 76.7%
same,"viability, T/C",compound 0.0316 µM,47.2% and 49%
same,"viability, T/C",compound 0.1 µM,29.4%
same,"viability, T/C",compound 0.316 µM,14.3% and 13.7%
same,"viability, T/C",compound 1 µM,8.6% and 5.54%
same,IC50,curve of compound,26 nM and 31.8 nM
